In patent US20070281900A1, “COMPOSITIONS AND METHODS FOR LIPID AND POLYPEPTIDE BASED siRNA [sequence] [sequence]” (NASTECH PHARMACEUTICAL COMPANY INC., priority 2006, published 2007):
Peptide text beside a SMILES is read from it.

Test system: 9L/LacZ cells
Experiment: Cell confluency as measure of effect of transfection condition on cell growth
Conditions: Qneg siRNA 100 nM, PN183 7 μM or PN73 2 μM where named, nontransfected cells 70%
Experimental: For each transfection mixture, 9L/LacZ cells (passage 8) were plated at density of 6.0×10^3 cells/well on a 96-well plate. […] The cationic lipid […]™ served as a positive transfection control. Non-transfected cells served as a negative transfection control and a positive control for cell growth.
Transfection efficiency was calculated by dividing the number of fluorescently labeled cells by the total number of cells and multiplying by 100. Cell confluency was used to measure the effect of each transfection condition on cell growth.

C[C@@H](O)[C@H](NC(=O)[C@H](CCC(=O)O)NC(=O)[C@H](Cc1c[nH]c2ccccc12)NC(=O)[C@H](Cc1c[nH]c2ccccc12)NC(=O)[C@@H](NC(=O)[C@H](CCC(=O)O)NC(=O)[C@@H](N)CCCCN)[C@@H](C)O)C(=O)N[C@@H](Cc1c[nH]c2ccccc12)C(=O)N[C@@H](Cc1c[nH]c2ccccc12)C(=O)N[C@H](C(=O)N[C@@H](CCC(=O)O)C(=O)N[C@@H](Cc1c[nH]c2ccccc12)C(=O)N[C@@H](CO)C(=O)N[C@@H](CCC(N)=O)C(=O)N1CCC[C@H]1C(=O)NCC(=O)N[C@@H](CCCNC(=N)N)C(=O)N[C@@H](CCCCN)C(=O)N[C@@H](CCCCN)C(=O)N[C@@H](CCCNC(=N)N)C(=O)N[C@@H](CCCNC(=N)N)C(=O)N[C@@H](CCC(N)=O)C(=O)N[C@@H](CCCNC(=N)N)C(=O)N[C@@H](CCCNC(=N)N)C(=O)N[C@@H](CCCNC(=N)N)C(=O)N1CCC[C@H]1C(=O)N1CCC[C@H]1C(=O)N[C@@H](CCC(N)=O)C(N)=O)[C@@H](C)O [PN183] (H-KETWWETWWTEWSQPGRKKRRQRRRPPQ-NH2)
% Cell Confluency 20 nM (lipid group 20 nM): 70% | % Cell Confluency 60 nM (lipid group 60 nM): 70%
